Measurements: patent US20110301079A1, “NEUROMEDIN U RECEPTOR AGONISTS AND USES THEREOF” (Instituto di Ricerche di Biologia Molecolare P. Angeletti …, priority 2007, published 2011)

Experiments:
[1] = tested on: male C57BL/6 diet-induced obese mice; test: Intraperitoneal glucose tolerance test (IPGTT); format: in vivo; settings: one and three mpk injected 30 minutes before IPGTT, glucose 2 g/kg i.p., either dosage level
Protocol: Fourteen male C57BL/6 diet-induced obese mice (˜30 wk age) were used. Five hours before the experiment, food was removed, and clean cages were provided. Saline with or without NMS at one and three mpk were injected 30 minutes before the IPGTT and a blood sample was taken. Then glucose (2 g/kg) was injected intraperitoneally. Blood samples were taken after 15, 30, 60, 90, and 120 minutes and glucose levels were determined with the glucose oxidase method.

[2] = tested on: male diet-induced obese mice; test: Acute feeding study with NMU and NMS; format: in vivo
Protocol: Ad libitum fed male diet-induced obese mice obtained from Taconic Farms were weighed and dosed either i.p. or s.c. with NMS or NMU at about 30 minutes prior to the onset of the dark phase of the light cycle and provided with a pre-weighed aliquot of high fat diet (D12492: 60% kcal from fat: Research Diets, Inc.), which was then weighed two and 18 hours after the onset of the initial dark phase. Mice were weighed at the 18 hour (overnight) time point.

[3] = tested on: dog NMUR1-ATG; test: FLIPR calcium mobilization assay, dog NMUR1-ATG cell line; format: cell-based
From the text: (§1) Human, mouse or rat cDNAs encoding NMUR1 or NMUR2 (as described in Howard et al. Nature 406: 70-74 (2000) were subcloned in pcDNA5 (Invitrogen) and transfected into FLP-In CHO cells and HEK-293 FLP-In cells purchased from Invitrogen (Carlsbad, Calif.) using lipofectamine (Invitrogen). The Flp-In system allows integration and expression of a particular gene of interest at a specific genomic location utilizing the Flp recombinase from yeast. The transfected cells were selected by growth in medium containing 200 μg/mL hygromycin (Invitrogen). Populations were frozen at early passage numbers, and these stocks were used for further studies. Stable clones that expressed the mRNAs were identified functionally by FLIPR as well as by RT-PCR. […] Two different rodent NMUR1 cell lines were thus generated: one with the codon as predicted from the genomic databases and another cell line with an engineered methionine (ATG) as the start codon. The dog NMU receptors were also cloned from intestine RNA (NMUR1) and brain (NMUR2) and stable cell lines were generated as used for the human and rodent cell lines. […] To ensure high levels of expression in a heterologous system, a dog NMUR1 cell line was generated that contains an ATG as the start codon. Additionally, stable cell lines expressing the human receptors were generated in HEK-293/aeq 17 cells which stably express the aequorin gene under the CMV promoter. The human NMUR2 cDNA was cloned into pcDNA3.1 and human NMUR1 was subcloned into pIRES-puro (Clontech, Mountain View, Calif.), after transfection cells were selected in media containing G418 and either hygromycin (NMUR2) or puromycin (NMUR1).
(§2) The NMU receptors signal primarily through Gαq/11 proteins; therefore calcium mobilization assays can be utilized for functional activity.
(§3) Stable cell lines expressing human and or rodent NMUR1 or human NMUR2 receptors are plated at a density of 12,000 cells per well overnight on poly-lysine coated 384-well black-walled plates. The following day, the media is removed from the plates and the cells were subsequently loaded with Fluo-3 (Molecular Probes), a calcium sensitive dye, diluted in FLIPR buffer (1× Hank's buffered saline containing 20 mM HEPES, 0.1% BSA, 2.5 mM probenecid (Sigma) and 1.6 mM TR40). All reagents are from Invitrogen unless otherwise noted. Peptide stocks are resuspended in DMSO at a stock concentration of 2 mM and diluted in FLIPR buffer on the day of the experiment to a 4 μM working stock solution.
(§4) After a 90 minute incubation at room-temperature, cell plates are loaded onto a FLIPR (Molecular Devices) to monitor cellular fluorescence (excitation=488 nm; emission=540 nm) before and after compound/peptide addition. Eight to twelve point dose responses are tested on NMUR-expressing cell lines using FLIPR with 1 μM peptide as the highest dose. The response after peptide addition is taken as the maximum fluorescence units minus the fluorescence immediately prior to stimulation for each well. EC50 values are calculated using GraphPad Prism (San Diego, Calif.) software.
(§5) Percent activity refers to the maximum response at 1 μM compared to the human NMU-25 response at the same concentration.

[4] = Pharmacokinetic analysis using the FLIPR-based bioassay of plasma; format: in vivo; settings: mice, 10 mg/kg subcutaneously, FIG. 5
Protocol: Peptide exposure levels in dosed animals were measured using the bioassay. Animals were dosed subcutaneously and plasma was collected at various time points post-dose. The bioassay is a FLIPR-based assay that measures the concentration of peptide in plasma from animals dosed with hNMU-25 or NMS. The assay is run essentially as described above (Example 2) with the following modifications: sample preparation prior to the assay is performed on ice to minimize degradation of plasma samples. The assay was run with 4% plasma as the final concentration. A three-point titration was done with the dosed plasma and tested on human NMUR1-expressing cell lines using FLIPR. The response after sample addition was taken as the maximum fluorescence units minus the fluorescence immediately prior to stimulation for each well. In addition to a three-point titration of dosed plasma samples, a 16-point titration of the peptide (hNMU-25 or NMS) was run in 4% plasma (naive plasma) to serve as the standard. The concentration of the peptide in plasma was calculated based on extrapolations from the appropriate standard using the GraphPad Prism software.
In the experiment, the animals were dosed subcutaneously with 10 mg/kg of human NMU-25 or human NMS and plasma was collected at various time points post dose and measured in the Bioassay. […]

[5] = target: T1, mouse NMUR2 (Mus musculus, UniProt Q8BZ39); test: FLIPR calcium mobilization assay, mouse NMUR2 cell line; format: cell-based
T1 construct: expressed in transfected cells; host or cells: FLP-In CHO cells and HEK-293 FLP-In cells (pcDNA5)
From the text: as §1, §2, §3, §4, §5

[6] = tested on: diet-induced obese animals; test: Chronic administration by subcutaneous micro-osmotic pumps; format: in vivo, mice; settings: two weeks
Protocol: Chronic administration of peptide was evaluated using micro-osmotic pumps designed to deliver 0.5 μl/h (Alza Co.). Pumps were filled with peptide or vehicle and implanted subcutaneously in the intrascapular space in diet-induced obese animals. Mice were fed ad libitum and food intake and body weight were measured daily for two weeks. […] Cumulative body weight change (FIG. 2A) and cumulative food intake (FIG. 2B) with two-week treatment of NMU and NMS are shown.

[7] = target: T2, human NMUR2 (Homo sapiens, UniProt Q9GZQ4); test: FLIPR calcium mobilization assay, human NMUR2-expressing cell line; format: cell-based
T2 construct: expressed in transfected cells; host or cells: FLP-In CHO cells and HEK-293 FLP-In cells (pcDNA5)
From the text: as §1, §2, §3, §4, §5

T2 sequence (Q9GZQ4 whole entry): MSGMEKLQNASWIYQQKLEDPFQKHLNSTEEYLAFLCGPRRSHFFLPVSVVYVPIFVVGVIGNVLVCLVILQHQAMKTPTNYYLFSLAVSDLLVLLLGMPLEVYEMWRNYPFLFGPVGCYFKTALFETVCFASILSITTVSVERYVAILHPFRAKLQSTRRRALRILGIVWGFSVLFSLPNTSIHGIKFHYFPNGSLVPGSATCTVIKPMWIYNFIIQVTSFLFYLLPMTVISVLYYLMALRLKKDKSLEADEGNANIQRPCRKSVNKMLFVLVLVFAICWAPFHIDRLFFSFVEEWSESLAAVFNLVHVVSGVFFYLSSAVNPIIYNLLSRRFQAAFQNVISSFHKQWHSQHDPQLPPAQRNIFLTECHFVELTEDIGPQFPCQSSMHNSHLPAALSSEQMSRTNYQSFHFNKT
T1 sequence (Q8BZ39 whole entry): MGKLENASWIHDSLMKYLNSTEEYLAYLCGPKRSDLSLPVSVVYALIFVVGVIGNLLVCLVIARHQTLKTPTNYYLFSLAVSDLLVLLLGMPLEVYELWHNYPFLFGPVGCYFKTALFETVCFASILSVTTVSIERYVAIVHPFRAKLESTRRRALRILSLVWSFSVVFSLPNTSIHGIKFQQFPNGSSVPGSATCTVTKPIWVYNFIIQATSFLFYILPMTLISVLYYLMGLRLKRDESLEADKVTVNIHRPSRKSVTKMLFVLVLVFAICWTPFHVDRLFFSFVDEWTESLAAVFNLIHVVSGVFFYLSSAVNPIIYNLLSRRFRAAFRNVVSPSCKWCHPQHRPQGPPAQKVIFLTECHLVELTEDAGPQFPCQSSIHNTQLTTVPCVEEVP

EC50 ([3]; FLIPR): 4.4 nM | metabolic stability in vivo compared to NMU [4]: greater metabolic stability | EC50 ([5]; mouse NMUR2, FLIPR): 7.8 nM | % Activity ([5]; mouse NMUR2, maximum response at 1 μM compared to the human NMU-25 response at the same concentration): 111% | EC50 ([7]; human NMUR2, FLIPR): 12.6 nM | % Activity ([7]; human NMUR2, maximum response at 1 μM compared to the human NMU-25 response at the same concentration): 107%
Substance: H-ILQRGSGTAAVDFTKKDHTATWGRPFFLFRPRN-NH2 [NMS, reference compound]
glucose metabolism (IPGTT) [1]: enhanced glucose metabolism | anorectic effects compared with NMU ([2]; acute peripheral administration): appeared to be greater than the anorectic effects observed with NMU | food intake ([2]; acute peripheral administration (i.p. or s.c.), FIG. 1A): significantly reduced | body weight ([2]; acute peripheral administration, 18 hour (overnight), FIG. 1B): significantly reduced | % Activity ([3]; maximum response at 1 μM compared to the human NMU-25 response at the same concentration): 100% | effect on food intake and body weight compared with NMU [6]: appeared to be greater than that observed for NMU | body weight ([6]; cumulative change, FIG. 2A): significantly reduced | food intake ([6]; cumulative, FIG. 2B): significantly reduced
